Laboratory results as given in patent US12503476B2, “Ring-fused 2-pyridone compounds, methods for preparation thereof and their use in the treatment and/or prevention of a disease involving gram-positive bacteria” (QURETECH BIO AB, priority 2020, dated 2025).
In brackets after ≈: the same amount, converted by molar mass. Read-outs that look alike come from different tables or passages of the source.

Experiments:
[1] = test system: MRSA; experiment: Minimum Inhibitory Concentration (MIC) assay, MRSA; type: cell-based, Methicillin-resistant Staphylococcus aureus; settings: 24 h, read-out: MIC for MRSA
Method: (§1) The cultures (200 μl) were incubated at 37° C. for 24 h. […] The MIC was measured in micromolar concentration, i.e. μM. Objectively, this was determined by measuring the optical density (i.e. OD) of the test cultures at 600 nm using a spectrophotometer. As used herein, OD600 stands for optical density at a wavelength of 600 nm (i.e. 600 nanometers).

[2] = test system: MRSA; experiment: Minimum Bactericidal Concentration (MBC) assay, MRSA; settings: for MBC: Staphylococcus aureus, MRSA; for MBC for MRSA: Table 3
[3] = test system: E. faecalis; experiment: Minimum Inhibitory Concentration (MIC) assay, E. faecalis; type: cell-based, Enterococcus faecalis; settings: for MIC: read-out: MIC for E. faecalis; for Growth inhibition of the pathogen of interest compared to the compound of Example 14 in WO 2018/229141: conclusion from Table 3 (E. faecalis and MRSA)
Method: as §1

[4] = test system: E. faecalis OG1RF; experiment: Combined activity with gentamicin, vancomycin or ampicillin, E. faecalis OG1RF; type: cell-based, Enterococcus faecalis; settings: for OD600 at 24 h when combined with gentamicin / Synergistic effect when combined with gentamicin: compound 1 μM; for OD600 at 24 h when combined with gentamicin / Synergistic effect when combined with gentamicin / E. faecalis activity, combination with gentamicin compared to gentamicin alone, compound alone and comparative example alone / E. faecalis activity, combination with gentamicin compared to the combination of the comparative example and gentamicin: gentamicin 16 μg/ml; for Synergistic effect when combined with gentamicin: 24 h, n.d. = activity not observed; for E. faecalis activity, combination with gentamicin compared to gentamicin alone, compound alone and comparative example alone / E. faecalis activity, combination with gentamicin compared to the combination of the comparative example and gentamicin / E. faecalis activity, combination with vancomycin compared to vancomycin alone or compound alone: subinhibitory compound 1-4 μM, OD600 24 h; for E. faecalis activity, combination with vancomycin compared to vancomycin alone or compound alone: vancomycin 1 μg/ml
Method: (§2) […]. The concentrations used in the experiments with E. faecalis OG1RF were 16 μg/ml gentamicin, 1 μg/ml vancomycin or 1 μg/ml ampicillin. In experiments where combinations were tested against MRSA 1369, 0.05 μg/ml gentamicin, 1 μg/ml vancomycin or 16 μg/ml ampicillin was used.
(§3) Bacterial cultures (190 μl) at a starting OD=0.001 at OD600 were incubated together with either subinhibitory concentrations of gentamicin/vancomycin/ampicillin or compound alone, or a combination of the two. The cultures (200 μl) were incubated at 37° C. for 24 h. A control sample without compound and gentamicin/vancomycin/ampicillin but containing compound vehicle (DMSO) and gentamicin/vancomycin/ampicillin vehicle (MQ water) was performed the same way. After 24 h, the effect on bacterial growth compared to untreated control samples was determined by measuring optical density at 600 nm with a spectrophotometer.
[…]. MIC/MBC values for the compounds administered alone are also shown for comparison. Unless otherwise stated, the compound was provided in a concentration of 1 μM.

[5] = test system: E. faecalis; experiment: Minimum Bactericidal Concentration (MBC) assay, E. faecalis; settings: for MBC: Enterococcus faecalis, read-out: MBC for E. faecalis; for MBC for E. faecalis: second figure of MIC/MBC
[6] = test system: MRSA 1369; experiment: Combined activity with gentamicin, vancomycin or ampicillin, MRSA 1369; type: cell-based, Methicillin-resistant Staphylococcus aureus; settings: subinhibitory compound 1-4 μM, OD600 24 h; for MRSA activity, combination with ampicillin compared to ampicillin alone or compound alone: ampicillin 16 μg/ml; for MRSA activity, combination with vancomycin compared to vancomycin alone or compound alone: vancomycin 1 μg/ml
Method: as §2, §3

[7] = Staphylococcus aureus, MRSA, Table 3, compound alone, no antibiotic, 37° C., OD600, first figure of MIC/MBC, n.d. = activity not observed at the concentrations tested
[8] = read-out: MBC for MRSA, Table 3, compound alone, no antibiotic, MIC cultures plated on BHI, second figure of MIC/MBC, n.d. = activity not observed at the concentrations tested
[9] = Enterococcus faecalis, 24 h, Table 3, compound alone, no antibiotic, 24 h, 37° C., OD600, first figure of MIC/MBC, n.d. = activity not observed at the concentrations tested
[10] = Table 4, compound administered alone, n.d. = activity not observed
[11] = Enterococcus faecalis, Table 4, compound administered alone, first figure of MIC/MBC, n.d. = activity not observed
[12] = compound alone, no antibiotic, MIC cultures plated on BHI, second figure of MIC/MBC, n.d. = activity not observed at the concentrations tested
[13] = Table 3, compound alone, no antibiotic, 24 h, 37° C., OD600, first figure of MIC/MBC, n.d. = activity not observed at the concentrations tested

MIC [1, 7] [µM] | MIC [3, 9] [µM] | MIC [3, 11] [µM] | SMILES | MBC [2, 8] [µM] | OD600 at 24 h when combined with gentamicin [4] | Synergistic effect when combined with gentamicin [4] | MBC [5] [µM] | Growth inhibition of the pathogen of interest compared to the compound of Example 14 in WO 2018/229141 ([3]; compound alone) | E. faecalis activity, combination with gentamicin compared to gentamicin alone, compound alone and comparative example alone [4] | E. faecalis activity, combination with gentamicin compared to the combination of the comparative example and gentamicin [4] | also measured
5 (≈ 2.74 µg/mL) | 10 (≈ 5.48 µg/mL) |  | O=C(O)C12C[C@@H](c3cccc(C(F)(F)F)c3)C1Sc1c(C3CC3)c(Cc3cccc4ccccc34)cc(=O)n12 (single isomer, unassigned) [Example 3] | 5 (≈ 2.74 µg/mL) | OD600 = 0.35 at 24 h | Yes | 25 (≈ 13.7 µg/mL) |  |  |  | MIC ([3]; Table 4, compound administered alone, first figure of MIC/MBC, n.d. = activity not observed): 10 µM (≈ 5.48 µg/mL); MBC for E. faecalis [5, 10]: 25 µM
3 (≈ 1.77 µg/mL) | 5 (≈ 2.95 µg/mL) | 5 (≈ 2.95 µg/mL) | CN(C)c1c(Cc2cccc3ccccc23)c(C2CC2)c2n(c1=O)C1(C(=O)O)C[C@@H](c3cccc(C(F)(F)F)c3)C1S2 (some centres unmarked) [Example 5] | 4 (≈ 2.36 µg/mL) | OD600 = 0 | Yes | 25 (≈ 14.8 µg/mL) | substantially similar extent or to a higher extent | much larger extent | much larger extent | 
5 (≈ 2.57 µg/mL) |  | 5 (≈ 2.57 µg/mL) | O=C(O)C12C[C@@H](c3cccc(Cl)c3)C1Sc1c(C3CC3)c(Cc3cccc4ccccc34)cc(=O)n12 (some centres unmarked) [Example 9] |  | OD600 = 0.1 | Yes | 25 (≈ 12.9 µg/mL) | substantially similar extent or to a higher extent |  |  | MBC for MRSA [2, 12]: 1 µM; MIC [3, 13]: 5 µM (≈ 2.57 µg/mL); MBC for E. faecalis [5, 10]: 25 µM
 |  |  | O=C(O)C12C[C@@H](c3cccc(Cl)c3)C1Sc1c(C3CC3)c(Cc3cccc4ccccc34)cc(=O)n12 (some centres unmarked) [Example 11] |  |  |  |  | substantially similar extent or to a higher extent | much larger extent |  | MIC ([1]; Table 3, compound alone, no antibiotic, 37° C., OD600, first figure of MIC/MBC, n.d. = activity not observed at the concentrations tested): 4 µM (≈ 2.06 µg/mL); MBC for MRSA [2, 12]: 10 µM; MIC [3, 13]: 4 µM (≈ 2.06 µg/mL); MBC for E. faecalis ([5]; Table 3, compound alone, no antibiotic, MIC cultures plated on BHI, n.d. = activity not observed at the concentrations tested): 25 µM
2 (≈ 1.11 µg/mL) | 3 (≈ 1.67 µg/mL) | 3 (≈ 1.67 µg/mL) | CN(C)c1c(Cc2cccc3ccccc23)c(C2CC2)c2n(c1=O)C1(C(=O)O)C[C@@H](c3cccc(Cl)c3)C1S2 (some centres unmarked) [Example 13] | 4 (≈ 2.23 µg/mL) | OD600 = 0 | Yes | 25 (≈ 13.9 µg/mL) | substantially similar extent or to a higher extent | much larger extent | much larger extent | 
2 (≈ 1.1 µg/mL) | 3 (≈ 1.65 µg/mL) | 3 (≈ 1.65 µg/mL) | O=C(O)C12C[C@@H](c3cc(Cl)cc(Cl)c3)C1Sc1c(C3CC3)c(Cc3cccc4ccccc34)cc(=O)n12 (some centres unmarked) [Example 15] | 4 (≈ 2.19 µg/mL) | OD600 = 0 | Yes |  | substantially similar extent or to a higher extent | much larger extent | much larger extent | MRSA activity, combination with ampicillin compared to ampicillin alone or compound alone [6]: much larger extent; MRSA activity, combination with vancomycin compared to vancomycin alone or compound alone [6]: much larger extent
3 (≈ 1.68 µg/mL) | 4 (≈ 2.23 µg/mL) | 4 (≈ 2.23 µg/mL) | O=C(O)C12C[C@@H](c3cccc(Br)c3)C1Sc1c(C3CC3)c(Cc3cccc4ccccc34)cc(=O)n12 (some centres unmarked) [Example 17] | 7.5 (≈ 4.19 µg/mL) | OD 600 = 0 | Yes | 25 (≈ 14 µg/mL) | substantially similar extent or to a higher extent | much larger extent | much larger extent | 
 |  |  | Cc1cccc([C@@H]2CC3(C(=O)O)C2Sc2c(C4CC4)c(Cc4cccc5ccccc45)cc(=O)n23)c1 (some centres unmarked) [Example 19A] |  |  | Yes | 25 (≈ 12.3 µg/mL) | substantially similar extent or to a higher extent |  |  | MIC ([1]; Staphylococcus aureus, MRSA): 5 µM (≈ 2.47 µg/mL); MBC ([2]; read-out: MBC for MRSA): 10 µM (≈ 4.94 µg/mL); MIC ([3]; Enterococcus faecalis, 24 h): 7.5 µM (≈ 3.7 µg/mL); MIC ([3]; Enterococcus faecalis): 7.5 µM (≈ 3.7 µg/mL)
3 (≈ 1.52 µg/mL) | 5 (≈ 2.54 µg/mL) | 5 (≈ 2.54 µg/mL) | Cc1cc(C)cc([C@@H]2CC3(C(=O)O)C2Sc2c(C4CC4)c(Cc4cccc5ccccc45)cc(=O)n23)c1 (some centres unmarked) [Example 21] | 7.5 (≈ 3.81 µg/mL) | OD600 = 0.1 | Yes | 25 (≈ 12.7 µg/mL) | substantially similar extent or to a higher extent | much larger extent |  | 
5 (≈ 2.6 µg/mL) | 5 (≈ 2.6 µg/mL) |  | O=C(O)C12C[C@@H](c3cccc(Cl)c3)C1Sc1c(C3CC3)c(Cc3cc4ccccc4s3)cc(=O)n12 (some centres unmarked) [Example 30] |  |  |  |  |  | much larger extent | much larger extent | MRSA activity, combination with gentamicin compared to gentamicin alone or compound alone ([6]; gentamicin 0.05 μg/ml): much larger extent; MRSA activity, combination with vancomycin compared to vancomycin alone or compound alone [6]: much larger extent; E. faecalis activity, combination with vancomycin compared to vancomycin alone or compound alone [4]: much larger extent
5 (≈ 2.74 µg/mL) | 5 (≈ 2.74 µg/mL) |  | O=C(O)C12C[C@@H](c3c(Cl)cccc3Cl)C1Sc1c(C3CC3)c(Cc3cccc4ccccc34)cc(=O)n12 (some centres unmarked) [Example 33] |  |  |  |  | substantially similar extent or to a higher extent | much larger extent | much larger extent | MRSA activity, combination with ampicillin compared to ampicillin alone or compound alone [6]: much larger extent; MRSA activity, combination with vancomycin compared to vancomycin alone or compound alone [6]: much larger extent; E. faecalis activity, combination with vancomycin compared to vancomycin alone or compound alone [4]: much larger extent
